A word on the MIC: it is the lowest concentration found to suppress growth.

≈ marks a conversion by molar mass, not a printed value. Structures can show the parent of a compound that is named as a salt. Where two headings read alike, the source gives them in different places. Some results are limits rather than exact numbers.

For 15 compounds, MIC results are on record in patent US10919916B2, “Boron-containing small molecules” (Bill & Melinda Gates Foundation, priority 2016, dated 2021).

Assay [1] has as its system Staphylococcus aureus, MRSA (ATCC 33591). Put plainly: Antibacterial MIC assay (microbroth dilution, CLSI). The following applies: read-out: MIC Staphylococcus aureus, MRSA (ATCC 33591). The assay is classed as cell-based. From the text: (§1) All MIC testing of bacteria followed the Clinical and Laboratory Standards Institute (CLSI) guidelines for antimicrobial testing of aerobic bacteria (Methods for Dilution Antimicrobial Susceptibility Tests for Bacteria that Grow Aerobically; Approved Standard—Tenth Edition, M07-A10; Performance Standards for Antimicrobial Susceptibility Testing; Twenty-fifth Informational Supplement, M100-S25).
(§2) Briefly, the microbroth dilution MIC method was used to quantitatively measure the in vitro antibacterial activity of a compound against a given bacterial isolate. The following bacterial strains were evaluated: Staphylococcus aureus, MRSA (ATCC 33591) and Streptococcus pneumoniae (ATCC 49619). Bacteria were grown in cation-adjusted Mueller-Hinton broth, with additions as required per species growth requirements (e.g. 3% lysed horse blood for fastidious organisms such as S. pneumoniae). A direct colony suspension in saline was prepared from colonies on an overnight agar plate to achieve a turbidity equivalent to 0.5 McFarland standard, which was subsequently diluted into the assay plate to achieve 5×10^5 CFU/mL. Assays plates were prepared by 2-fold dilution of compound across the plate and included a positive growth control.
Background: Dilution methods test growth across graded concentrations, often in twofold steps.

Assay [2] relates to Streptococcus pneumoniae (ATCC 49619). The description is as above. The assay is classed as cell-based.
Excerpt: as §1
as §2, with “The following bacterial strains were evaluated: Staphylococcus aureus, MRSA (ATCC 33591) and Streptococcus pneumoniae (ATCC 49619).” left out

Where [3] appears, read: ATCC49619, read-out: MIC Streptococcus pneumoniae (ATCC 49619).
[4] abbreviates: microbroth dilution, cation-adjusted Mueller-Hinton broth, 35° C. for 16-20 hours.
Setting [5] is: ATCC49619, microbroth dilution, 3% lysed horse blood, 35° C. for 16-20 hours, read-out: MIC Streptococcus pneumoniae (ATCC 49619).

For the compound `C=C[C@]1(C)C[C@@H](OC(=O)COc2ccc3c(c2)B(O)OC3C)[C@]2(C)[C@H](C)CC[C@]3(CCC(=O)[C@H]32)[C@@H](C)[C@@H]1O` (stereo partly drawn) [Compound 19, (3aR,4R,5R,7S,8S,9R,9aS,12R)-8-hydroxy-4,7,9,12-tetramethyl-3-oxo-7-vinyldecahydro-4,9a-propanocyclopenta[8]annulen-5-yl 2-((1-hydroxy-3-methyl-1,3-dihydrobenzo[c][1,2]oxaborol-6-yl)oxy)acetate], the MIC in assay [1] is under 0.25 µg/mL; in assay [2] (setting [3]) it was 0.5 to 2 µg/mL (≈ 0.953 to 3.81 µM).

`C=C[C@]1(C)C[C@@H](OC(=O)COc2ccc3c(c2)B(O)OC3(C)C)[C@]2(C)[C@H](C)CC[C@]3(CCC(=O)[C@H]32)[C@@H](C)[C@@H]1O` [Compound 20, (3aR,4R,5R,7S,8S,9R,9aS,12R)-8-hydroxy-4,7,9,12-tetramethyl-3-oxo-7-vinyldecahydro-4,9a-propanocyclopenta[8]annulen-5-yl 2-((1-hydroxy-3,3-dimethyl-1,3-dihydrobenzo[c][1,2]oxaborol-6-yl)oxy)acetate]: the MIC in assay [1] was under 0.25 µg/mL; in assay [2] (setting [3]) it was 0.5 to 2 µg/mL (≈ 0.929 to 3.71 µM).

As to `C=C[C@]1(C)C[C@@H](OC(=O)COc2ccc3c(c2)B(O)OC3CN)[C@]2(C)[C@H](C)CC[C@]3(CCC(=O)[C@H]32)[C@@H](C)[C@@H]1O.Cl` (stereo partly drawn) [Compound 21, (3aR,4R,5R,7S,8S,9R,9aS,12R)-8-hydroxy-4,7,9,12-tetramethyl-3-oxo-7-vinyldecahydro-4,9a-propanocyclopenta[8]annulen-5-yl 2-((3-(aminomethyl)-1-hydroxy-1,3-dihydrobenzo[c][1,2]oxaborol-6-yl)oxy)acetate Hydrochloride], the MIC in assay [1] (setting [4]) was 0.5 to 2 µg/mL; in assay [2] (setting [3]) it was under 0.25 µg/mL.

Take `C=C[C@]1(C)C[C@@H](OC(=O)COc2ccc3c(c2F)B(O)OC3CN)[C@]2(C)[C@H](C)CC[C@]3(CCC(=O)[C@H]32)[C@@H](C)[C@@H]1O.Cl` (stereo partly drawn) [Compound 29, (3aR,4R,5R,7S,8S,9R,9aS,12R)-8-hydroxy-4,7,9,12-tetramethyl-3-oxo-7-vinyldecahydro-4,9a-propanocyclopenta[8]annulen-5-yl 2-((3-(aminomethyl)-7-fluoro-1-hydroxy-1,3-dihydrobenzo[c][1,2]oxaborol-6-yl)oxy)acetate Hydrochloride]: the MIC in assay [1] (setting [4]) and in assay [2] (setting [5]) was 0.5 to 2 µg/mL each time.

For the compound `C=C[C@]1(C)C[C@@H](OC(=O)COc2ccc3c(c2Cl)B(O)OC3CN)[C@]2(C)[C@H](C)CC[C@]3(CCC(=O)[C@H]32)[C@@H](C)[C@@H]1O` (stereo partly drawn) [Compound 31, (3aR,4R,5R,7S,8S,9R,9aS,12R)-8-hydroxy-4,7,9,12-tetramethyl-3-oxo-7-vinyldecahydro-4,9a-propanocyclopenta[8]annulen-5-yl 2-((3-(aminomethyl)-7-chloro-1-hydroxy-1,3-dihydrobenzo[c][1,2]oxaborol-6-yl)oxy)acetate Hydrochloride], the MIC in assay [1] and in assay [2] (setting [3]) was 0.5 to 2 µg/mL each time.

On to `C=C[C@]1(C)C[C@@H](OC(=O)COc2ccc3c(c2)COB3O)[C@]2(C)[C@H](C)CC[C@]3(CCC(=O)[C@H]32)[C@@H](C)[C@@H]1O` [Compound 32, (3aR,4R,5R,7S,8S,9R,9aS,12R)-8-hydroxy-4,7,9,12-tetramethyl-3-oxo-7-vinyldecahydro-4,9a-propanocyclopenta[8]annulen-5-yl 2-((1-hydroxy-1,3-dihydrobenzo[c][1,2]oxaborol-5-yl)oxy)acetate], for which the MIC in assay [1] was under 0.25 µg/mL; in assay [2] (setting [3]) it was 0.5 to 2 µg/mL (≈ 0.98 to 3.92 µM).

For `C=C[C@]1(C)C[C@@H](OC(=O)COc2cc(F)c3c(c2)COB3O)[C@]2(C)[C@H](C)CC[C@]3(CCC(=O)[C@H]32)[C@@H](C)[C@@H]1O` [Compound 33, (3aR,4R,5R,7S,8S,9R,9aS,12R)-8-hydroxy-4,7,9,12-tetramethyl-3-oxo-7-vinyldecahydro-4,9a-propanocyclopenta[8]annulen-5-yl 2-((7-fluoro-1-hydroxy-1,3-dihydrobenzo[c][1,2]oxaborol-5-yl)oxy)acetate], the MIC in assay [1] was under 0.25 µg/mL; in assay [2] (setting [3]), 0.5 to 2 µg/mL (≈ 0.946 to 3.78 µM).

In the case of `C=C[C@]1(C)C[C@@H](OC(=O)COc2cc3c(cc2F)B(O)OC3)[C@]2(C)[C@H](C)CC[C@]3(CCC(=O)[C@H]32)[C@@H](C)[C@@H]1O` [Compound 34, (3aR,4R,5R,7S,8S,9R,9aS,12R)-8-hydroxy-4,7,9,12-tetramethyl-3-oxo-7-vinyldecahydro-4,9a-propanocyclopenta[8]annulen-5-yl 2-((6-fluoro-1-hydroxy-1,3-dihydrobenzo[c][1,2]oxaborol-5-yl)oxy)acetate], the figures for the MIC in assay [1] and in assay [2] (setting [3]) were under 0.25 µg/mL and 0.5 to 2 µg/mL (≈ 0.946 to 3.78 µM), respectively.

As to `C=C[C@]1(C)C[C@@H](OC(=O)Nc2ccc3c(c2)B(O)OC3)[C@]2(C)[C@H](C)CC[C@]3(CCC(=O)[C@H]32)[C@@H](C)C1=O` [Compound 43, (3aR,4R,5R,7S,9R,9aS,12R)-4,7,9,12-tetramethyl-3,8-dioxo-7-vinyldecahydro-4,9a-propanocyclopenta[8]annulen-5-yl (1-hydroxy-1,3-dihydrobenzo[c][1,2]oxaborol-6-yl)carbamate], the MIC in assay [1] (setting [4]) and in assay [2] (setting [5]) was 0.5 to 2 µg/mL (≈ 1.01 to 4.05 µM) in each case.

As for `C=C[C@]1(C)C[C@@H](OC(=O)CNc2ccc3c(c2)B(O)OC3)[C@]2(C)[C@H](C)CC[C@]3(CCC(=O)[C@H]32)[C@@H](C)[C@@H]1O` [Compound 45, (3aR,4R,5R,7S,8S,9R,9aS,12R)-8-hydroxy-4,7,9,12-tetramethyl-3-oxo-7-vinyldecahydro-4,9a-propanocyclopenta[8]annulen-5-yl (1-hydroxy-1,3-dihydrobenzo[c][1,2]oxaborol-6-yl)glycinate], the MIC was under 0.25 µg/mL in assay [1] and 0.5 to 2 µg/mL (≈ 0.981 to 3.93 µM) in assay [2] (setting [3]).

In the case of `C=C[C@]1(C)C[C@@H](OC(=O)CNc2cc3c(cc2F)COB3O)[C@]2(C)[C@H](C)CC[C@]3(CCC(=O)[C@H]32)[C@@H](C)[C@@H]1O` [Compound 46, (3aR,4R,5R,7S,8S,9R,9aS,12R)-8-hydroxy-4,7,9,12-tetramethyl-3-oxo-7-vinyldecahydro-4,9a-propanocyclopenta[8]annulen-5-yl (5-fluoro-1-hydroxy-1,3-dihydrobenzo[c][1,2]oxaborol-6-yl)glycinate], the MIC in assay [1] is under 0.25 µg/mL; in assay [2] (setting [3]), 0.5 to 2 µg/mL (≈ 0.948 to 3.79 µM).

As to `C=C[C@]1(C)C[C@@H](OC(=O)CNc2cc3c(cc2CN)COB3O)[C@]2(C)[C@H](C)CC[C@]3(CCC(=O)[C@H]32)[C@@H](C)[C@@H]1O` [Compound 47, (3aR,4R,5R,7S,8S,9R,9aS,12R)-8-hydroxy-4,7,9,12-tetramethyl-3-oxo-7-vinyldecahydro-4,9a-propanocyclopenta[8]annulen-5-yl (5-(aminomethyl)-1-hydroxy-1,3-dihydrobenzo[c][1,2]oxaborol-6-yl)glycinate], the MIC lay in the range of 0.5 to 2 µg/mL (≈ 0.929 to 3.71 µM) in assay [1] (setting [4]) and 4 to 32 µg/mL (≈ 7.43 to 59.4 µM) in assay [2] (setting [5]).

As to `C=C[C@]1(C)C[C@@H](OC(=O)CNc2ccc3c(c2CN)B(O)OC3)[C@]2(C)[C@H](C)CC[C@]3(CCC(=O)[C@H]32)[C@@H](C)[C@@H]1O` [Compound 49, (3aR,4R,5R,7S,8S,9R,9aS,12R)-8-hydroxy-4,7,9,12-tetramethyl-3-oxo-7-vinyldecahydro-4,9a-propanocyclopenta[8]annulen-5-yl (7-(aminomethyl)-1-hydroxy-1,3-dihydrobenzo[c][1,2]oxaborol-6-yl)glycinate], the MIC in assay [1] and in assay [2] (setting [3]) was 0.5 to 2 µg/mL (≈ 0.929 to 3.71 µM) each time.

Take `C=C[C@]1(C)C[C@@H](OC(=O)CNc2cc(CN)c3c(c2)B(O)OC3)[C@]2(C)[C@H](C)CC[C@]3(CCC(=O)[C@H]32)[C@@H](C)[C@@H]1O` [Compound 50, (3aR,4R,5R,7S,8S,9R,9aS,12R)-8-hydroxy-4,7,9,12-tetramethyl-3-oxo-7-vinyldecahydro-4,9a-propanocyclopenta[8]annulen-5-yl (4-(aminomethyl)-1-hydroxy-1,3-dihydrobenzo[c][1,2]oxaborol-6-yl)glycinate]: the MIC in assay [1] is 0.5 to 2 µg/mL (≈ 0.929 to 3.71 µM); in assay [2] (setting [3]) it was under 0.25 µg/mL.

For the compound `C=C[C@]1(C)C[C@@H](OC(=O)CNc2ccc3c(c2)B(O)OC3(C)C)[C@]2(C)[C@H](C)CC[C@]3(CCC(=O)[C@H]32)[C@@H](C)[C@@H]1O` [Compound 51, (3aR,4R,5R,7S,8S,9R,9aS,12R)-8-hydroxy-4,7,9,12-tetramethyl-3-oxo-7-vinyldecahydro-4,9a-propanocyclopenta[8]annulen-5-yl (1-hydroxy-3,3-dimethyl-1,3-dihydrobenzo[c][1,2]oxaborol-6-yl)glycinate], the minimal inhibitory concentration (MIC) in assay [1] is under 0.25 µg/mL; in assay [2] (setting [3]), 0.5 to 2 µg/mL (≈ 0.93 to 3.72 µM).
